Consider two molecules from patent publication US20210251269A1, “Beverages Comprising Highly Soluble Steviol Glycoside Blend and Glucosylated Steviol Glycosides” (The Coca-Cola Company, priority 2018, published 2021).

Data set [1] is described as follows: Solubility at syrup stage (lemon lime and cola beverage syrup, 5.5+1). The data set is classed as physicochemical. How it is done: The ingredients were dissolved in filtered water to constitute a syrup, then the final beverage was made by weighing the appropriate syrup amount and adding carbonated water using a ratio of 1-part syrup+5.5 parts carbonated water. Final beverages were filled in 300 ml glass bottles then aged for 3 days at 35° C. before they were cooled and served cold (4° C.). The control with Reb-M was made by heating water up to around 47° C. then dissolving Reb-M. After complete dissolution, the concentrated Reb-M solution was cooled down to ambient temperature before the rest of the ingredients were added.

The nature of data set [2]: Sensory evaluation of beverages by expert panelists. The data set is classed as in vivo. To be noted: 480 ppm steviol glycosides in finished beverage; at least 5 expert panelists, blind; carbonated beverages tasted at 4° C. How it is done:
Steviol glycosides with high purity (>95%) namely Rebaudioside A, B, D, M, Glycosylated steviol glycoside (GSG) were evaluated in acidified citric buffer, a lemon lime and a cola carbonated beverage at concentration of 480 ppm in finished beverage.
The beverages were evaluated blindly by at least 5 expert panelists who work and taste steviol glycosides sweetened beverages daily. Samples were coded and randomly presented to the panelists. Panelists were instructed to eat an unsalted cracker and rinse the mouth with water before and in between samples. The maximum samples for each session was set at 5 samples to avoid fatigue. For each sample, panelists were instructed to take 3 sips, then write down their evaluation comments. Mock beverages were tasted at ambient temperature while carbonated beverages (diet lemon lime and cola) were tasted at 4° C.

The conditions of data set [3]: cited from earlier work.

In the case of `C=C1C[C@@]23CC[C@H]4[C@@](C)(CCC[C@@]4(C)C(=O)O[C@@H]4O[C@H](CO)[C@@H](O)[C@H](O[C@@H]5O[C@H](CO)[C@@H](O)[C@H](O)[C@H]5O)[C@H]4O[C@@H]4O[C@H](CO)[C@@H](O)[C@H](O)[C@H]4O)[C@@H]2CC[C@]1(O[C@@H]1O[C@H](CO)[C@@H](O)[C@H](O[C@@H]2O[C@H](CO)[C@@H](O)[C@H](O)[C@H]2O)[C@H]1O[C@@H]1O[C@H](CO)[C@@H](O)[C@H](O)[C@H]1O)C3` [Reb-M, Rebaudioside M], the “solubility at syrup stage” value in data set [1] is reported as 0.1%. The “Panelist Rating (1 = most preferred, 6 = least preferred)” value in data set [2] was determined as 2.
As for `C=C1C[C@@]23CC[C@H]4[C@@](C)(CCC[C@@]4(C)C(=O)O[C@@H]4O[C@H](CO)[C@@H](O)[C@H](O)[C@H]4O)[C@@H]2CC[C@]1(O[C@@H]1O[C@H](CO)[C@@H](O)[C@H](O[C@@H]2O[C@H](CO)[C@@H](O)[C@H](O)[C@H]2O)[C@H]1O[C@@H]1O[C@H](CO)[C@@H](O)[C@H](O)[C@H]1O)C3` [Rebaudioside A], the aqueous solubility entry in data set [3] was “about 0.8 wt %”.
